≈ marks a conversion by molar mass, not a printed value. One block for each compound: values may come before it.
Legend:
[1] = test system: Acanthamoeba polyphaga (A. polyphaga); experiment: Growth inhibition of Acanthamoeba polyphaga by solid luliconazole crystals (1 mg added to culture); assay type: cell-based; settings: 1 mg of solid crystals added after 48 hours preculture; 25° C., 72 hours
Method: The anti-Acanthamoeba activities of the crystals in Examples 2 to 6 were examined based on the method in Example 1. In other words, Acanthamoeba polyphaga (A. polyphaga) of which the number of the amoebae was 50,000 with respect to 4.5 mL of ATCC712 medium was dispersed and seeded in 500 μL of medium, and was preliminarily cultured at 25° C. for 48 hours. To the resultant, 1 mg of each of the crystals in Examples 2 to 6 was added to prepare a control and samples. The culture was further continued at 25° C. for 72 hours, and the number of the amoebae in the culture liquid was measured by a Neubauer counting chamber. The control, to which nothing was added, and in which the amoebae were cultured, was used. Growth inhibition rates were calculated from the counted values according to an expression of [(the number of amoebae in control−the number of amoebae in each sample)/the number of amoebae in control]×100.

[2] = test system: Acanthamoeba polyphaga (A. polyphaga; clinical isolate); experiment: Growth inhibition of Acanthamoeba polyphaga by luliconazole in solution (methanol specimen), amoebae counted in a Neubauer counting chamber; assay type: cell-based; settings: 25° C., 72 hours
Method: Acanthamoeba polyphaga (A. polyphaga; clinical isolate) was cultured in an ATCC712 medium (hereinafter simply referred to as medium) at 25° C. for 1 week, and the medium was adjusted by adding a medium so that the number of the amoebae was 100,000 amoebae/mL, to make a preculture liquid. A control and samples were prepared by adding 4.3 mL of medium, 200 μL of specimen, and 500 μL of preculture liquid. The amoebae were cultured at 25° C. for 72 hours, and the number of the amoebae was counted by a Neubauer counting chamber.
Luliconazole used in the specimen was obtained as described below. A compound was synthesized according to a method described in Japanese Patent Laid-Open No. 60-218387, an ethyl acetate/normal hexane mixture (5:1) was added, and the resultant was warmed at 60° C. and dissolved under stirring. Crystals were precipitated while stirring the resultant in cooling water at 5° C., were filtered, and dried by sending air at 40° C. for 48 hours to obtain the crystals.
The specimen was prepared using methanol as a solvent so that the final concentration of luliconazole was 0, 5, 10, 20, or 40 μg/mL. The specimen in which the final concentration of luliconazole was 0 μg/mL was used as the control.
Growth inhibition rates were determined based on [(the number of amoebae in control−the number of amoebae in each sample)/the number of amoebae in control]×100. MIC and IC50 were calculated based on the growth inhibition rates by a usual method. MIC was 40 μg/mL, and IC50 was 20 μg/mL.

[3] = calculated from growth inhibition rates

SMILES: N#C/C(=C1/SC[C@@H](c2ccc(Cl)cc2Cl)S1)n1ccnc1 [Crystal in Example 2, luliconazole]
Growth Inhibition Rate (%) [1]: 66.7%

SMILES: N#C/C(=C1/SC[C@@H](c2ccc(Cl)cc2Cl)S1)n1ccnc1 [Crystal in Example 3, luliconazole]
Growth Inhibition Rate (%) [1]: 25.9%

SMILES: N#C/C(=C1/SC[C@@H](c2ccc(Cl)cc2Cl)S1)n1ccnc1 [Crystal in Example 4, luliconazole]
Growth Inhibition Rate (%) [1]: 69.6%

SMILES: N#C/C(=C1/SC[C@@H](c2ccc(Cl)cc2Cl)S1)n1ccnc1 [Crystal in Example 5, luliconazole]
Growth Inhibition Rate (%) [1]: 77.0%

SMILES: N#C/C(=C1/SC[C@@H](c2ccc(Cl)cc2Cl)S1)n1ccnc1 [Crystal in Example 6, luliconazole]
Growth Inhibition Rate (%) [1]: 54.8%

IC50 [2, 3]: 20 µg/mL (≈ 56.5 µM)
MIC [2, 3]: 40 µg/mL (≈ 113 µM)
SMILES: N#C/C(=C1/SC[C@@H](c2ccc(Cl)cc2Cl)S1)n1ccnc1 [luliconazole]
inhibition at 5 µg/mL ([2]; luliconazole final concentration 5 μg/mL, ATCC712 medium, read-out: Inhibition Rate (%)): 20%
inhibition at 10 µg/mL ([2]; luliconazole final concentration 10 μg/mL, ATCC712 medium, read-out: Inhibition Rate (%)): 40%
inhibition at 20 µg/mL ([2]; luliconazole final concentration 20 μg/mL, ATCC712 medium, read-out: Inhibition Rate (%)): 50%
inhibition at 40 µg/mL ([2]; luliconazole final concentration 40 μg/mL, ATCC712 medium, read-out: Inhibition Rate (%)): 95%

Source: US20200268716A1, “LULICONAZOLE AS ANTI-ACANTHAMOEBA AGENT AND METHOD FOR PRODUCING THE SAME” (Pola Pharma Inc., priority 2015, published 2020)
